Series [1] deals with L929 fibroblasts. The series is described as follows: MTT cellular viability assay, L929 fibroblasts. The settings on record: L929, 24 or 48 h, concentrations up to 25 µg/mL. Format: cell-based, mouse. How it is done:
Mouse fibroblast cell line L929 (CCL-1, ATCC, USA) and mouse melanoma cell B16 (ATCC CRL-6475, USA) were grown in DMEM (Dulbecco’s Modified Eagle Medium) supplemented with 2 mM L-Glutamine, 10% fetal calf serum (FCS), 100 units/mL of penicillin, and 100 µg/mL of streptomycin. They were kept at 37 °C in a humidified incubator under an atmosphere containing 5% CO2. All cell-cultivation media and reagents were purchased from Biochrom AG (Berlin, Germany) and Sigma-Aldrich (Darmstadt, Germany).
To test cellular viability, we used the MTT assay (3-(4,5-dimethylthiazol-2-yl)-2,5-diphenyltetrazolium bromide) colorimetric assay as previously described. Briefly, L929 and B16 cells were seeded in 96-well plates at a density of 5000 cells/well and grown in the culture medium for 24 h. […] The absorbance of the samples was recorded at λ = 570 nm using a plate reader (Mithras 940, Berthold, Bad Wildbad, Germany). The data were corrected for background absorbance, and the viability was calculated using the following formula:% viable cells = [(A570 of treated cells)/(A570 of untreated cells)] × 100 (%)
Half-maximal inhibitory concentration (IC50) was determined by fitting the data with a sigmoidal logistic function using Origin 8.1 (Microcal Inc., Northampton, MA, USA) software.
(Tetrazolium assays rely on reduction of a dye to a coloured formazan, in cell work by metabolically active cells.)

The test system of series [2] is L929 cells. The experiment in a line: Cell cycle analysis by flow cytometry, L929. Format: cell-based, mouse. The settings on record: L929, 24 h, 1.56 and/or 6.25 µg/mL. The method, then: (§1) A flow cytometry analysis was used to check the possible influence of the tested compounds on the cell cycle of both cellular lines L929 and B16. Before treatment, 25,000 cells per well were seeded in 24-well plates and treated with 2 concentrations of the compounds (1.56 and 6.25 µg/mL) for 24 h. After treatment, cells were detached, washed with cold PBS, and then resuspended in cold PBS mixed with 100% ethanol and kept at −20 °C for at least 24 h for fixation. The following day, the cells were stained using a 0.1% Triton-X in PBS containing 0.2 mg/mL RNAase and 20 µg/mL propidium iodide. The samples were incubated for 30 min at 37 °C in the dark. After incubation with the staining solution, the cells were washed with PBS and resuspended in 100 µL PBS. The cell cycle measurement was made using CytoFLEX (Beckman Coulter, Brea, CA, USA) by recording 30,000 events/sample. All experiments were made in triplicate, each having at least 2 wells per condition. The data was evaluated using the CytoFLEX software.

Series [3] concerns B16 cells. The series is described as follows: Cell cycle analysis by flow cytometry, B16. Format: cell-based, mouse. The settings on record: B16, 24 h, irrespective of the tested concentration (1.56 and/or 6.25 µg/mL). The method, then: as §1
For orientation: In flow cytometry, cells or beads pass a laser one at a time.

Series [4] relates to Escherichia coli ATCC 25922. The series is described as follows: Microdilution MIC assay, planktonic E. coli. Format: cell-based. Particulars: this paper. The method, then: (§2) The antibacterial activity of the inclusion complexes was evaluated on the Gram-negative Escherichia coli ATCC 25922 and Gram-positive Staphylococcus aureus ATCC 25923 reference bacterial strains. The antibacterial activity of the β-CD, precursor complexes, and inclusion complexes was evaluated against planktonic and biofilm-embedded cells to obtain the minimum inhibitory (MIC) and minimum biofilm eradication (MBEC) concentrations, respectively. The antibacterial activity assays were carried out on the Gram-negative E. coli ATCC 25922 and the Gram-positive S. aureus ATCC 25923 reference strains. The antimicrobial activity of the β-CD inclusion complexes versus the β-CD and Cu(II) complexes against planktonic bacterial cells was assessed using the microdilution assay, allowing MIC determination. Anti-biofilm activity was evaluated using the crystal-violet microtiter to determine the MBEC [25]. All experiments were performed in triplicate. In both assays, serial binary concentrations ranging from 8.81 to 0.013 mM were used.
For orientation: Broth dilution looks for growth in wells or tubes with falling amounts of substance.

Series [5] has as its system Staphylococcus aureus ATCC 25923. The experiment in a line: Microdilution MIC assay, planktonic S. aureus. The settings on record: S. aureus 25923, planktonic cells, this paper. In kind it is cell-based. How it is done: as §2
The subject of series [6] is biofilm-embedded cells. The series is described as follows: Crystal-violet microtiter anti-biofilm assay (MBEC). In kind it is cell-based. The method, then:
as §2

The format of series [7] is physicochemical. From the text: Compound (1) follows a linear profile described in the literature as an AL type, according to Higuchi and Connors. This behavior corresponds to a molar ratio of 1:1 between (1a) and β-CD, similar to that obtained using Job’s method. […] This value confirms that the equilibrium between (1) and β-CD shifts to the product, indicating a high tendency of (1) to enter the cavity of β-CD together with good stability of the (1a)@β-CD complex. […] Higuchi described this model as being AP, meaning a positive deviation from the linearity, corresponding to a 1:2 molar ratio between (2) and β-CD, in very good agreement with results obtained by Job’s method. This type of stoichiometry literature indicates a possibility of evaluating the stability constant starting from the equation of a quadratic model. Even if this is not a perfect model and the value calculated is affected by an error ~30%, reliable information about the stability of the (2a)@β -CD complex could be obtained. The model ensures the calculation of K1:1 and K1:2. The obtained values were 20.44 and 6 M^–1.
The method settled for phase-solubility studies was adapted from a previous paper. First, calibration curves for (1) and (2) were obtained. For this purpose, successive dilutions from the stock solution were performed, spectra were recorded and absorbance reeded 312 nm (1) and 272 nm (2). The plot of absorbance versus concentration gives two straight lines for both (1) and (2) complexes: y = 0.5111x − 0.0323 (R^2 = 0.9996) and y = 18.792x − 0.0323 (R^2 = 0.9996), respectively. Second, water and β-CD 20 mM were added to six samples containing an excess of complex (50 mg) that had the same volume but increasing β-CD concentration. In all experiments, the final volume was 5 mL. The samples were shaken for 1 h, filtered using 0.25 µm PTFE, and the solution was diluted to 1:25 mL before the spectra were recorded. The concentration of the complex in each solution was calculated using a calibration curve described above. In the end, the phase solubility diagrams were obtained by plotting the concentration of the complex versus the concentration of β-CD. The stability constants were calculated from the phase-solubility diagram as follows: (i) Kc = slope/[So × (1 − slope)], where So is the complex’s solubility in the absence of β-CD, for a 1:1 mole ratio, and (ii) STotal = S0 + K1:1[β-CD] + K1:1K1:2[β-CD]^2, where K1:1 and K1:2 are constants for 1:1 and 1:2 host–guest complexes and STotal is the total solubility of complex, for a 1:2 stoichiometry.

Series [8] concerns B16 melanoma cells. More on the design: method as in PMID 34833864. The settings on record: ref [25], cited from earlier work.
Series [9] concerns Escherichia coli ATCC 25922. More on the design: method as in PMID 34833864. Particulars: E. coli, planktonic cells; ref [25]; cited from earlier work.
The test system of series [10] is Staphylococcus aureus ATCC 25923. Also noted: method as in PMID 34833864. Particulars: S. aureus 25923, planktonic cells; ref [25]; cited from earlier work.
The test system of series [11] is L929 fibroblasts. More on the design: method as in PMID 34833864. Particulars: L929, time not stated; ref [25]; cited from earlier work.
On the set-up of series [12]: method as in PMID 34833864. The settings on record: ref [25]; cited from earlier work.

pIC50: −log10 of the molar value. Values after ≈ are worked out from the molar mass of the structure shown. Read-outs that look alike come from different tables or passages of the source.

With `OC[C@H]1O[C@@H]2O[C@H]3[C@H](O)[C@@H](O)[C@@H](O[C@H]4[C@H](O)[C@@H](O)[C@@H](O[C@H]5[C@H](O)[C@@H](O)[C@@H](O[C@H]6[C@H](O)[C@@H](O)[C@@H](O[C@H]7[C@H](O)[C@@H](O)[C@@H](O[C@H]8[C@H](O)[C@@H](O)[C@@H](O[C@H]1[C@H](O)[C@H]2O)O[C@@H]8CO)O[C@@H]7CO)O[C@@H]6CO)O[C@@H]5CO)O[C@@H]4CO)O[C@@H]3CO` [β-CD, β-cyclodextrin], the “effect on viability of normal fibroblast cells” value in series [1] is given as “did not affect the viability”. Further, the “change of number of cells in either cell cycle phase” value in series [2] was “did not significantly alter”. Also, in series [3], the “change of number of cells in cell cycle phases” value is reported as “did not significantly alter”. Further, the MIC was 8.81 mM (≈ 10000 µg/mL) in [4] (Escherichia coli, ATCC25922, planktonic cells, read-out: MIC); “no activity” in series [4] (planktonic cells); “no activity” in [5]; 8.81 mM (≈ 10000 µg/mL) in [5] (Staphylococcus aureus, ATCC25923, read-out: MIC).
In the case of “[Cu(bipy)(dmtp)2(OH2)](ClO4)2·dmtp [(1)]”, the antibiofilm activity entry in [6] is reported as “exhibit antibiofilm activity”. In addition, in [7], the “solubilization in water in the presence of β-CD” value is reported as “solubilized in water”. Also, the “IC50 against B16 cells” value in series [8] (B16, previous study) is “no IC50 could be calculated”. For the same compound, the MIC in series [9] was 0.71 mM; in [10] it was 0.18 mM.
“[Cu(phen)(dmtp)2(OH2)](ClO4)2·dmtp [(2)]”: the antibiofilm activity result in series [6] is given as “exhibit antibiofilm activity”. The “solubilization in water in the presence of β-CD” value in series [7] is recorded as “solubilized in water”. In addition, the pIC50 was 4.82 in [11]; 5.12 in series [8] (B16, 24 h, read-out: IC50 against B16 cells 24 h); 5.34 in [8] (B16, 48 h, read-out: IC50 against B16 cells 48 h). In addition, the “IC50 L929” value in [11] was 13.61 µg/mL. Further, the “IC50 against B16 cells 24 h” value in [8] (B16, 24 h) is 6.88 µg/mL. Also, the “IC50 against B16 cells 48 h” value in series [8] (B16, 48 h) is 4.15 µg/mL. Further, the MIC in series [9] is 0.34 mM; in series [10] it was 0.04 mM. Besides, the “scavenging of OH· radicals” value in series [12] is listed as “not observed”.
For “[Cu(phen)(dmtp)2(OH2)](ClO4)2@β-CD [(2a)@β-CD]”, in [7], the “K1:1 (stability constant)” value was 20.44 M^–1 and the “K1:2 (stability constant)” value is given as 6 M^–1.
Turning to “[Cu(bipy)(dmtp)2(OH2)](ClO4)2@β-CD [(1a)@β-CD]”, the “Kc (stability constant, 1:1)” value in series [7] is 250 M^–1.

By MIC is commonly meant the smallest concentration in the dilution series that meets the test's criterion for growth inhibition. The term pIC50 denotes the negative decadic logarithm of the IC50, by convention in mol/L.

Source of the values: publication PMC9916925, “Copper (II) Species with Improved Anti-Melanoma and Antibacterial Activity by Inclusion in β-Cyclodextrin” (International Journal of Molecular Sciences, 2023).
